Assay results reported in patent US20040006328A1, “Targeting of sebaceous follicles as a treatment of sebaceous gland disorders” (priority 1999, published 2004).

Assays:
[1] = Localization of applied dyes in in-vitro human sebaceous skin samples by frozen sectioning and light microscopy; type: in vitro ADME
Excerpt: Fresh, in-vitro human sebaceous skin samples were used. Dye solutions and particle suspensions were applied to the samples at different concentration and in various vehicles, followed by localization of the dye by frozen sectioning and light microscopy. […] Apparently, almost any dye or suspension can be delivered to the upper infundibulum by direct solvent flow into the pore. Optimization of the concentration and solvent for MB and ICG can be determined by one skilled in the art. […] Physical means of increasing dye uptake into the infundibulum, including ultrasonication with a tissue dismembranator at low intensity, and a simple pressure-applicator intended to open the surface pores while providing a pressure gradient in favor of dye uptake is possible.

[2] = Methylene blue staining of sebaceous glands in ex vivo tissue (topical application, frozen sections, light microscopy); type: in vitro ADME, human
Experimental: (§1) Freshly excised human skin from a face-lift procedure was provided by a plastic surgeon. The skin originated from the periauricular area and the anterior hairline of a middle-aged fair-skinned person. The samples were stored at 4 ? C. overnight. On the day of experiment, the tissue was shaved with a razor and defatted by rubbing the surface with alcohol swabs for 1 minute. After cutting the skin in smaller pieces, the tissue was placed on saline-soaked gauzes. Methylene blue, a cationic hydrophilic dye was dissolved in distilled water, alcohol, and propylene glycol at a concentration of 5% and applied on the surface of the skin in a thick layer at 31 ? C. […] 5 mm-punch biopsies were performed and the samples were processed frozen sections.
There was minimal non-specific staining of the interstitial dermis.
as §1, with “5% and was mixed in a commercially available aqueous-based lotion (50 mL of dissolved dye in 500 mg of lotion) and applied on” for “5% and applied on”
Methylene blue dye was also administered into the sebaceous glands via Retina Gel® (Ortho Pharmaceuticals) as the carrier vehicle. Typically, a sufficient amount of methylene blue (50 mL of dissolved dye in 500 mg of gel) was combined with hydroxypropyl cellulose, butylated hydroxytoluene and alcohol and applied to the epidermis.

increase of rate of uptake by iontophoresis [1]: at least one order of magnitude
entry of dye into the infundibulum ([1]; fresh in-vitro human sebaceous skin, dye solutions at different concentrations and in various vehicles): rapidly enter the infundibulum
non-specific staining of the interstitial dermis (FIG. 9) [2]: minimal
non-specific staining of the interstitial dermis (FIG. 10) [2]: minimal
Compound: CN(C)c1ccc2nc3ccc(=[N+](C)C)cc-3sc2c1 [Methylene blue]
staining of the sebaceous glands ([1]; fresh in-vitro human sebaceous skin, requiring several hours): deeply and selectively stain the sebaceous glands
surface staining after removal of excess dye ([2]; 5% dye solution mixed in aqueous-based lotion (50 mL of dissolved dye in 500 mg of lotion), 31 C, 1 hour): lightly stained epidermis with accentuation of the staining in the follicular pores
staining in histologic sections (light microscopy, FIG. 10) ([2]; 5% dye solution mixed in aqueous-based lotion, 31 C, 1 hour, frozen sections): dense blue staining of the epidermis and of some sebaceous glands and entire hair follicles
staining in histologic sections (light microscopy, FIG. 9) ([2]; 5% in distilled water, alcohol and propylene glycol, 31 C, 1 hour, 5 mm punch biopsies, frozen sections): dense blue staining of the epidermis and of some sebaceous glands and entire hair follicles
surface staining after removal of excess dye ([2]; 5% in distilled water, alcohol and propylene glycol, thick layer at 31 C, 1 hour): lightly stained epidermis with accentuation of the staining in the follicular pores
penetration into the sebaceous glands (light microscopy) ([2]; Retina Gel as carrier vehicle (50 mL of dissolved dye in 500 mg of gel)): Penetration of the methylene blue dye into the sebaceous glands
